Experimental data: ChEMBL document CHEMBL6134864, “Discovery of FLT3-ITD Inhibitor Clifutinib: A Novel Biphenylacetylene Urea Derivative in Clinical Trials for the Treatment of Relapsed/Refractory FLT3-ITD+ Acute Myeloid Leukemia” (J Med Chem, 2025)

Legend:
[1] = Cmax in dog plasma at 5 mg/kg, po measured up to 24 hrs by LC-MS/MS analysis; type: ADME, organism-based, Canis lupus familiaris
BaF3 = assay: Antiproliferative activity against mouse BaF3 cells harbouring FLT3-ITD-D835Y mutant assessed as inhibition of cell growth incubated for 72 hrs by celltiter-glo luminescent cell viability assay; type: functional, cell-based; settings: BaF3, 72 h
MOLT-4 = assay: cells; settings: Homo sapiens, MOLT-4, 72 h
Description: Antiproliferative activity against human MOLT-4 cells assessed as inhibition of cell growth incubated for 72 hrs by celltiter-glo luminescent cell viability assay

[2] = Toxicity in NOD/SCID mouse assessed as effect on body weight loss at 0.5 to 4.5 mg/kg/day, po administered for 21 days and measured for 31 days post dose; type: organism-based; settings: in vivo, 504 h, dose 0.5-4.5 mg/kg/day, time 21 day
[3] = Tmax in NOD/SCID mouse tumor xenografted with human MV4-11 cells at 0.5 mg/kg, po measured up to 24 hrs by LC-MS/MS analysis; type: ADME, organism-based, Neoplasm
[4] = Toxicity in NOD/SCID mouse assessed as observable signs of toxicity at 0.5 to 4.5 mg/kg/day, po administered for 21 days and measured for 31 days post dose; type: organism-based; settings: in vivo, 504 h, dose 0.5-4.5 mg/kg/day, time 21 day
Cytochrome P450 3A4 = Cytochrome P450 3A4 (Homo sapiens, UniProt P08684); assay: Inhibition of CYP3A4 in human liver microsomes by UPLC-MS/MS analysis; type: ADME, Microsome
Cytochrome P450 3A4, sequence (P08684 whole entry): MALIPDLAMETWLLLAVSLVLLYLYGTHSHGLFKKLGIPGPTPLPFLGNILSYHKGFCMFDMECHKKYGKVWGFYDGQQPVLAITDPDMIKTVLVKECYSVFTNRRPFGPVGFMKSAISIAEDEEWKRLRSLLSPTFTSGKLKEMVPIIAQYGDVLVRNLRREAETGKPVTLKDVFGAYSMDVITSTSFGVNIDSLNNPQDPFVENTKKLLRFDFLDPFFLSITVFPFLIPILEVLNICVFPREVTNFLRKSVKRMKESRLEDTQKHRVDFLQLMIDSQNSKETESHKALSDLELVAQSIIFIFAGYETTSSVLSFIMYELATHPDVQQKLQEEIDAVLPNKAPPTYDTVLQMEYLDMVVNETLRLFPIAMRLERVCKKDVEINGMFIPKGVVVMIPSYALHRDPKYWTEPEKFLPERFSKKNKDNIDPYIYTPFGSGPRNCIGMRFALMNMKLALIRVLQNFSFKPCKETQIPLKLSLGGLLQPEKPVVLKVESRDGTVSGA

Cmax [1]: 520 ng/mL | IC50 (BaF3): 0.0476 µM | IC50 (MOLT-4): > 10 µM | Tmax [3]: 3 h | IC50 (Cytochrome P450 3A4): > 33.3 µM
Compound: CC(C)(C)c1cc(NC(=O)Nc2ccc(C#Cc3ccc(OCCCN4CCOCC4)cc3)cc2)no1
Activity [2]: Non-toxic | Activity [4]: Non-toxic
